Reference: patent publication US20250122541A1, “ENZYMATIC AND CHEMICAL CATALYSIS FOR PRODUCTION FROM GLUCOSE OF THE PHARMACEUTICAL PRECURSOR, S-3-HYDROXY- Y -BUTYROLACTONE HBL” (The United States, as represented by the Secretary of …, priority 2023, published 2025)
Values joined by “and” are separate entries in the source; they are usually repeats but may differ in a detail not shown here. Equal values may be shown once.

What was measured:
[1] = Half-life of BPP followed spectroscopically at 265 nm; format: physicochemical; conditions: phosphate buffer (enzyme-free ultrafiltrate of the reaction), pH 6, 0.1 M phosphate, first-order decay, after removal of D1*D2D3 by ultrafiltration, read-out: half-life (t1/2)
Experimental: The synthesis and t1/2 of BPP was determined spectroscopically at 265 nm. The synthesis of BPP with D1*D2D3 sonicate and 10 mM glucosone in a 500 μL reaction was followed until the absorbance reached ˜1.4 (about 14 minutes). The reaction was then passed through a 3,000 MWCO Nanosep centrifugal filter (PALL Life Sciences) by centrifuging for 4 minutes at 14,000×g and 200 μL of filtrate followed at A265 every 4 s. The decay of A265 was normalized to the highest and lowest measured values, with the highest A265 set to 1 and the lowest to 0. To determine whether the t1/2 was 0th, 1st or 2nd order, the natural log of the data was plotted against time. After determining that the decay followed 1st-order decay, t1/2 was calculated using the Solver add-in for Microsoft Excel, minimizing the sum of squared differences between the measured and modeled data calculated using Equation 1.

[2] = Partition coefficient of HBL extraction from aqueous solution into organic solvent (GC/FID); format: physicochemical
From the text: One potential application of HBL, which may have high value, is as a pharmaceutical precursor, which depends on its enantiomeric purity. To identify the chirality of the HBL produced by the above process, gas chromatography (GC) with flame ionization detection (FID) was applied using a MilliporeSigma® Supelco® ß-Dex 255 capillary GC column containing a chiral stationary phase of 2,3-diO-acetyl-6-0-TBDMS-ß-cyclodextrin. (MilliporeSigma and Supelco are registered trademarks of Merck KGaA of Darmstadt, Germany) This column successfully separated the enantiomers of HBL, although the retention times depended on the solvent in which the HBL was dissolved. Based on the reaction network from glucose to HBL, the chirality should be preserved at the C-5 position (FIG. 1). The reaction product solution was extracted with ethyl acetate, and the organic phase analyzed by GC/FID. […] The partition coefficient of HBL extraction into ethyl acetate was 0.1±0.02, and quantification of the HBL in the ethyl acetate coupled with this partition coefficient leads to an overall yield of HBL from glucose of 90%, which is limited by equilibrium, vide supra. HBL can also be extracted into THE, with a partition coefficient of 1.3±0.5, and propylene carbonate, with a partition coefficient of 0.5±0.1.

In the case of `O=C1C(O)=C[C@@H](CO)OC1O` (stereo partly shown) [BPP], the half-life [1] is reported as 3.7 min.

For `O=C1C[C@H](O)CO1` [HBL, (S)-3-hydroxy-γ-butyrolactone], the “partition coefficient of HBL extraction into THF” value ([2]; THF (printed THE) / aqueous solution) was 1.3 and 1.3±0.5, the “partition coefficient of HBL extraction into ethyl acetate” value ([2]; ethyl acetate / aqueous reaction product solution) was 0.1 and 0.1±0.02 and the “partition coefficient of HBL extraction into propylene carbonate” value ([2]; propylene carbonate / aqueous solution) was 0.5±0.1.
